Measured values as given in US6921768B2, “Cytostatic cerium compounds” (Faustus Forschungs Cie. Translational Cancer Research GmbH, priority 2001, dated 2005).

Tests used:
[1] = test system: 13 human tumour xenografts and 10 human tumour cell lines; details: propidium iodide assay
[2] = test system: over 50 human tumour cell lines; details: 48-h sulphurhodamine B-assay
Procedure: First in vitro tests were carried out at the National Cancer Institute (Bethesda, Md., USA).

[3] = mean over 13 human tumour xenografts and 10 human tumour cell lines
[4] = mean over more than 50 human tumour cell lines

O.[Cl-].[Cl-].[Cl][Ce+2].c1cnc2c(c1)ccc1cccnc12.c1cnc2c(c1)ccc1cccnc12 [KP 776, trans-[aquachlorobis(1,10-phenantrolin)cerium(III)]-dichloride]
Mean IC50 [1, 3]: 1.20 µg/mL | Mean IC90 [1, 3]: 7.27 µg/mL | tumour type with strongest effectiveness ([1]; result in words): the strongest effectiveness was found on a melanoma (xenograft) | IC50 ([1]; read-out: Mean IC50, mean over 13 human tumour xenografts and 10 human tumour cell lines): 1.92 µM | IC90 ([1]; read-out: Mean IC90, mean over 13 human tumour xenografts and 10 human tumour cell lines): 11.6 µM | Mean Gl50 [2, 4]: 0.61 µg/mL | Mean LC50 [2, 4]: 39.4 µg/mL | activity on single ovarian, kidney cell and parvicellular and non-parvicellular bronchial carcinoma cell lines ([2]; result in words): Above average activities | selectivity among tumour cell line types ([2]; result in words): a certain selectivity for malignant melanoma was evident | IC50 ([2]; read-out: Mean Gl50, mean over more than 50 human tumour cell lines): 0.98 µM | CC50 ([2]; read-out: Mean LC50, mean over more than 50 human tumour cell lines): 63.1 µM
